Data: patent US8410109B2, “Pharmaceutical compositions for the prevention and treatment of complex diseases and their delivery by insertable medical devices” (Resverlogix Corp., priority 2005, dated 2013)
Where a name gives a salt, the structure may show the parent alone.

Columns and labels:
VCAM-1 = VCAM-1 ELISA on lysates of TNF-α stimulated HUVECs; type: cell-based; conditions: Homo sapiens, HUVEC, approx. 16 hours
Procedure: (§1) Compounds were dissolved in DMSO, aliquoted, and stored at −20° C. Cultured human vascular endothelial cells (HUVECs) were seeded in 96-well plates in complete EGM-2 media (˜100 μL/well); cells were plated at ˜2-3×10^5/mL, and were from passage 8 to 12. Cells were incubated overnight. On the following day cells are stimulated with TNF-α (˜1 ng/mL) in the presence or absence of compounds dissolved in DMSO. Triplicate wells were used for each test. To establish a dose curve and an IC50, multiple concentrations in 2- to 5-fold increments were used. Cells were exposed to TNF-α and compounds for approximately 16 hours. The next day, cells were visually examined via light microscopy to score for visual signs of toxicity. Cell culture media was analyzed using an MCP-1 ELISA. Cells were refed (−100 μL/well) with 20% CellTiter 96. Aqueous One Cell Proliferation Solution (Promega), 80% EGM-2 medium. Media optical density (at 490 nm) was determined after 1 hour. Plates were aspirated and cell lysates were prepared and these lysates were tested using a VCAM-1 ELISA.
(§2) In Table 2, a positive result (+) was defined as at least 50% inhibition of the protein levels MCP-1 or VCAM-1, as determined by the ELISA.

MCP-1 = MCP-1 ELISA on culture media of TNF-α stimulated HUVECs; type: cell-based; conditions: Homo sapiens, HUVEC, approx. 16 hours
Procedure: as §1, §2

[1] = test system: Human coronary artery smooth muscle cells (CASMCs); assay: Smooth muscle cell proliferation protocol; type: cell-based; conditions: 72 hours, read-out: % Inhibition of SMC Proliferation
Procedure: Compounds were dissolved in DMSO, aliquoted, and stored at −20° C. Human coronary artery smooth muscle cells (CASMCs) were plated in 96-well plates and were grown in SmBM-2 media. After 1-2 hours, media was aspirated and replaced with serum-free ME/F12 media, except the controls. Cells were incubated for a further 48 hours. Compounds were diluted in DME/F12 containing 10% FBS. Media was aspirated from the plates and compounds in DME/F12 containing 10% FBS. Six wells were used per condition and duplicate plates were used. Cells were incubated for a further 72 hours. Media was aspirated from one set of plates; those cells were refed (˜100 μL/well) with 20% CellTiter 96 Aqueous One Cell Proliferation Solution (Promega), 80% EGM-2 medium. Media optical density (at 490 nm) was determined after 3-4 hours. In the second set of plates, serum-free DME/F12 media (20 μL) was added to each well. Part of the supernatant (50 μL) was removed and placed in an ELISA plate and was stored temporarily at 4° C. The remaining media and cells in the second set of plates were freeze-thawed for four cycles. The lysates and supernatants were mixed and centrifuged. Part of the supernatant (50 μL) was removed and placed in an ELISA plate. The Promega Cytotox assay was performed on the ELISA plates. The ratio of supernatant OD to supernatant+cell lysate OD was determined.
In Table 2, a positive result (+) was defined as at least 40% inhibition of the proliferation of SMC, as determined by the assay.

Row | Structure (SMILES) | inhibition at 50 µM (VCAM-1) | inhibition at 50 µM (MCP-1) | inhibition at 50 µM [1] | other results
1 | CN(C)Cc1ccc2c(=O)cc(-c3ccc(O)cc3)oc2n1 (as salt: hydrochloride) [EXAMPLE 26, 7-((dimethylamino)methyl-2-(4-hydroxyphenyl)-4H-pyrano[2,3-b]pyridin-4-one dihydrochloride] |  |  |  | melting point: 205 °C
2 | CC(C)(Sc1cc(C(C)(C)C)c(O)c(C(C)(C)C)c1)Sc1cc(C(C)(C)C)c(OC(=O)CCC(=O)O)c(C(C)(C)C)c1 [AGI1067, reference compound] |  |  |  | inhibition at 5 µM (VCAM-1; 5 uM): 68%; inhibition at 5 µM (MCP-1; 5 uM): 60%
3 | O=c1cc(-c2ccc(O)cc2)oc2ncccc12 [EXAMPLE 1, 2-(4-Hydroxy-phenyl)-pyrano[2,3-b]pyridin-4-one] | ≥ 50% | < 50% | < 40% | 
4 | O=c1cc(-c2ccc(O)cc2)oc2cccnc12 [EXAMPLE 2, 2-(4-Hydroxy-phenyl)-pyrano[3,2-b]pyridin-4-one] | < 50% | < 50% | ≥ 40% | 
5 | O=c1cc(-c2ccc(O)cn2)oc2ccccc12 [EXAMPLE 11, 2-(5-Hydroxy-pyridin-2-yl)chromen-4-one] | < 50% | < 50% | < 40% | 
6 | O=c1cc(-c2ccncc2)oc2ccccc12 [EXAMPLE 12, 2-Pyridin-4-yl-chromen-4-one] | ≥ 50% | ≥ 50% | ≥ 40% | 
7 | O=c1cc(-c2ccc(O)cc2)[nH]c2ccccc12 [EXAMPLE 14, 2-(4-Hydroxy-phenyl)-1H-quinolin-4-one] | ≥ 50% | ≥ 50% | < 40% | 
8 | O=C1C=C(c2ccc(O)cc2)C(=O)c2ccccc21 [EXAMPLE 20, 2-(4-Hydroxy-phenyl)-[1,4]naphthoquinone] |  |  |  | inhibition at 10 µM (VCAM-1): ≥ 50%; inhibition at 10 µM (MCP-1): < 50%; inhibition at 10 µM [1]: < 40%
9 | CN(C)Cc1ccc2c(=O)cc(-c3ccc(O)cc3)oc2n1 [EXAMPLE 26, 7-((dimethylamino)methyl-2-(4-hydroxyphenyl)-4H-pyrano[2,3-b]pyridin-4-one dihydrochloride] | < 50% | < 50% | ≥ 40% | 
10 | CN(C)CCOc1ccc(-c2cc(=O)c3cccnc3o2)cc1 [EXAMPLE 27, 2-(4-(2-(dimethylamino)ethoxy)phenyl)-4H-pyrano[2,3-b]pyridin-4-one dihydrochloride] | < 50% | < 50% | ≥ 40% | 
11 | O=c1cc(-c2ccncc2)oc2ncccc12 [EXAMPLE 30, 2-(pyridin-4-yl)-4H-pyrano[2,3-b]pyridin-4-one hydrochloride] | < 50% | < 50% | ≥ 40% | 
12 | Cc1cc(-c2cc(=O)c3cccnc3o2)cc(C)c1OCCN1CCOCC1 [EXAMPLE 31, 2-(3,5-dimethyl-4-(2-morpholinoethoxy)phenyl)-4H-pyrano[2,3-b]pyridin-4-one hydrochloride] | ≥ 50% | < 50% | ≥ 40% | 
13 | Cc1cc(-c2cc(=O)c3cc(CN4CCCC4)cnc3o2)cc(C)c1O [EXAMPLE 33, 2-(4-hydroxy-3,5-dimethylphenyl)-6-(pyrrolidin-1-ylmethyl)-4H-pyrano[2,3-b]pyridin-4-one dihydrochloride] | < 50% | ≥ 50% | ≥ 40% | 
14 | COc1cc(OC)c2c(=O)cc(-c3ccncc3)oc2c1 [EXAMPLE 34, 5,7-dimethoxy-2-(pyridin-4-yl)-4H-chromen-4-one hydrochloride] | < 50% | < 50% | ≥ 40% | 
15 | O=c1cc(-c2ccccc2)oc2ncc(CN3CCCC3)cc12 [EXAMPLE 35, 2-phenyl-6-(pyrrolidin-1-ylmethyl)-4H-pyrano[2,3-b]pyridin-4-one hydrochloride] | < 50% | < 50% | ≥ 40% | 
16 | O=c1cc(-c2ccc(F)cc2)oc2ncc(CN3CCCC3)cc12 [EXAMPLE 37, 2-(4-fluorophenyl)-6-(pyrrolidin-1-ylmethyl)-4H-pyrano[2,3-b]pyridin-4-one hydrochloride] | ≥ 50% | < 50% | ≥ 40% | 
17 | Nc1ccc(-c2cc(=O)c3cccnc3o2)cc1 [EXAMPLE 38, 2-(4-aminophenyl)-4H-pyrano[2,3-b]pyridin-4-one hydrochloride] | < 50% | < 50% | ≥ 40% | 
18 | CC(C)Oc1ccc(-c2cc(=O)c3cc(CN4CCCC4)cnc3o2)cc1 [EXAMPLE 39, 2-(4-isopropoxyphenyl)-6-(pyrrolidin-1-ylmethyl)-4H-pyrano[2,3-b]pyridinone hydrochloride] | ≥ 50% | ≥ 50% | ≥ 40% | 
19 | Cc1cc(-c2cc3ncccc3c(=O)[nH]2)cc(C)c1O [EXAMPLE 40, 7-(4-hydroxy-3,5-dimethylphenyl)-1,6-naphthyridin-5(6H)-one hydrochloride] | < 50% | < 50% | ≥ 40% | 
20 | COc1cc(O)nc2cc(-c3cc(C)c(O)c(C)c3)[nH]c(=O)c12 [EXAMPLE 41, 2-hydroxy-7-(4-hydroxy-3,5-dimethylphenyl)-4-methoxy-1,6-naphthyridin-5(6H)-one dihydrochloride] | ≥ 50% | ≥ 50% | ≥ 40% | 
21 | CNc1nc(-c2cc(C)c(O)c(C)c2)cc2ccc(CN3CCN(C)CC3)cc12 [EXAMPLE 43, 2,6-dimethyl-4-(1-(methylamino)-7-((4-methylpiperazin-1-yl)methyl)isoquinolin-3-yl)phenol trihydrochloride] | ≥ 50% | ≥ 50% | ≥ 40% | 
22 | COc1cc(OC)c2c(=O)[nH]c(-c3cc(C)c(OCCN4CCOCC4)c(C)c3)cc2c1 [EXAMPLE 48, 3-(3,5-dimethyl-4-(2-morpholinoethoxy)phenyl)-6,8-dimethoxyisoquinolin-1(2H)-one] | ≥ 50% | < 50% | ≥ 40% | 
23 | Cc1cccc2oc(-c3ccncc3)cc(=O)c12 [EXAMPLE 49, 5-methyl-2-(pyridin-yl)-4H-chromen-4-one] |  |  |  | inhibition at 10 µM (VCAM-1): < 50%; inhibition at 10 µM (MCP-1): < 50%; inhibition at 10 µM [1]: < 40%
24 | CN(C)Cc1ccc2oc(-c3ccncc3)cc(=O)c2c1 [EXAMPLE 50, 6-((dimethylamino)methyl)-2-(pyridinyl)-4H-chromen-4-one] | < 50% | < 50% | ≥ 40% | 
25 | O=c1cc(-c2ccncc2)oc2cccc(CO)c12 [EXAMPLE 51, 5-(hydroxymethyl)-2-(pyridin-4-yl)-4H-chromen-4-one] | < 50% | < 50% | < 40% | 
26 | CC(C)(Sc1cc(C(C)(C)C)c(O)c(C(C)(C)C)c1)Sc1cc(C(C)(C)C)c(O)c(C(C)(C)C)c1 [Probucol, probucol, reference compound] |  |  |  | inhibition at 10 µM (VCAM-1): 19%; inhibition at 10 µM (MCP-1): 15%
27 | CO[C@H]1C[C@@H]2CC[C@@H](C)[C@@](O)(O2)C(=O)C(=O)N2CCCC[C@H]2C(=O)O[C@H]([C@H](C)C[C@@H]2CC[C@@H](O)[C@H](OC)C2)CC(=O)[C@H](C)/C=C(\C)[C@@H](O)[C@@H](OC)C(=O)[C@H](C)C[C@H](C)/C=C/C=C/C=C/1C [Rapamycin, rapamycin, reference compound] |  |  | 43% | 
28 | Oc1ccc(C=Cc2cc(O)cc(O)c2)cc1 [Resveratrol, resveratrol, reference compound] | 54% | 47% |  | 
29 | CC(=O)O[C@H]1C(=O)[C@@]2(C)[C@H]([C@H](OC(=O)c3ccccc3)[C@]3(O)C[C@H](OC(=O)[C@H](O)[C@@H](NC(=O)c4ccccc4)c4ccccc4)C(C)=C1C3(C)C)[C@]1(OC(C)=O)CO[C@@H]1C[C@@H]2O [Taxol, taxol, reference compound] |  |  |  | inhibition at 0.1 µM ([1]; 100 nM): 19%
